Columns and labels:
[1] = target: full length human FXR protein (Homo sapiens (Human), UniProt Q96RI1); experiment: FXR cellular assay (FXR-SRCP β-gal enzyme fragment complementation in CHO-K1 cells, chemiluminescence); type: cell-based; settings: CHO-K1 cells with SRCP-EA and ProLink-labeled FXR, 0-10 micromolar compound, 37° C. for 6h, read-out: EC50 FXR-cell Luminescence/
How it was run: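 CHO-K1 cells stably expressing ProLink-tagged full-length FXR and SRCP-EA treated with compound (0-10 micromolar, 1% DMSO) for 6 h at 37 °C. Ligand-driven FXR-coactivator binding reconstitutes β-gal; chemiluminescence read after 1 h detection reagent at room temperature.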

[2] = target: ligand binding domain (LBD) of recombinant human FXR (Homo sapiens (Human), UniProt Q96RI1); experiment: FXR cell free coactivator (SRC-1) recruitment assay, TR-FRET; settings: FXR LBD (amino acids 244-476) with labeled SRC-1 domain, 25° C. for 60 minutes, activity relative to CDCA maximum; read-out: EC50 FXR- Biochemical TR-FRET/μM
Sequence of ligand binding domain (LBD) of recombinant human FXR (Q96RI1 254-486): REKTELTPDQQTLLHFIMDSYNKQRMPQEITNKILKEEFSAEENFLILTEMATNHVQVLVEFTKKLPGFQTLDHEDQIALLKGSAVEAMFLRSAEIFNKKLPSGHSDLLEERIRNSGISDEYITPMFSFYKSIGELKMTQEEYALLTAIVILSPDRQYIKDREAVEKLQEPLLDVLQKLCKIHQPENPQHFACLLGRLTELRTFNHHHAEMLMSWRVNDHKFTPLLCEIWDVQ
Sequence of ligand binding domain (LBD) of recombinant human FXR (Q15788 whole entry partner, the tested form may be a part): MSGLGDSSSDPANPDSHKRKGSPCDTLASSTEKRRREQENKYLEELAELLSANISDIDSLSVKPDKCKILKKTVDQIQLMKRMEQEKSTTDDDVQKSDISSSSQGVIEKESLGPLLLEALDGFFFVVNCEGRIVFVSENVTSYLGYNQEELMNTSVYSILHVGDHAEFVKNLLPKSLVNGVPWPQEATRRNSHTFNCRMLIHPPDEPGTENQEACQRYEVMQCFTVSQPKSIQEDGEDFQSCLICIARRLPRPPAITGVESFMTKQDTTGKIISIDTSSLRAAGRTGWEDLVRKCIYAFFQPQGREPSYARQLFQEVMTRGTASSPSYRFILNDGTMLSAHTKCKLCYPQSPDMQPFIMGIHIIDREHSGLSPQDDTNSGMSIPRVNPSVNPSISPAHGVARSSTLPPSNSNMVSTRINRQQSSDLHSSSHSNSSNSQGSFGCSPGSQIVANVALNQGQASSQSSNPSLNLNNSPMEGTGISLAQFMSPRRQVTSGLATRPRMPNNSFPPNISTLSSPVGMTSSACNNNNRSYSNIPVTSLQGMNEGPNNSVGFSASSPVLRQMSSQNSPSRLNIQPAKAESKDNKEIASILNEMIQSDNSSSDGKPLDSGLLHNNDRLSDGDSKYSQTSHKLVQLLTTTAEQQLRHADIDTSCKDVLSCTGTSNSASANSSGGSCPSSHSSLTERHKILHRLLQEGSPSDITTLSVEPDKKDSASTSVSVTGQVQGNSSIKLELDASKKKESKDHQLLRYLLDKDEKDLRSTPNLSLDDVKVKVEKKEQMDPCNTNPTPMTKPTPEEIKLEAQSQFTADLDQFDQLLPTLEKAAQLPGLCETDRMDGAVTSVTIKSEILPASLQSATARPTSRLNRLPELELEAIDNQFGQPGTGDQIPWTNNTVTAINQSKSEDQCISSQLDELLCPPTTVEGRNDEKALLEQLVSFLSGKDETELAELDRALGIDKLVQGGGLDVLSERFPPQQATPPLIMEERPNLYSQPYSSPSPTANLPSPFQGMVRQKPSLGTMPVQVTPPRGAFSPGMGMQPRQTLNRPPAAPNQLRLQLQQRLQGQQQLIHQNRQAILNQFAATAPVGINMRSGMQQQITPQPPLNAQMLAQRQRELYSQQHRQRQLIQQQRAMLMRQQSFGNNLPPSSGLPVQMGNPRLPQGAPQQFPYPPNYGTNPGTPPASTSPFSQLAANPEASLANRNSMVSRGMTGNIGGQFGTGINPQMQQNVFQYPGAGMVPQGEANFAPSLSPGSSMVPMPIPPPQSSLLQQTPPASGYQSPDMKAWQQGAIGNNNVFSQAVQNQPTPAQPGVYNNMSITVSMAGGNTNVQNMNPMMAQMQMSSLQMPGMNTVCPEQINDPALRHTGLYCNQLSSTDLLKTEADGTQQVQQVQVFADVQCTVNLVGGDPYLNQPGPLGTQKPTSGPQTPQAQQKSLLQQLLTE
How it was run: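 Purified SF9-expressed FXR LBD (aa 244-476) was incubated with compounds (0-10 micromolar) and labeled SRC-1 interaction domain in TR-FRET coregulator buffer G, 60 min at 25° C, 1.2% DMSO. Activity at each concentration was taken as percent of maximal CDCA response to build dose-response curves.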

Sequence of full length human FXR protein (Q96RI1 whole entry, the tested form may be a part): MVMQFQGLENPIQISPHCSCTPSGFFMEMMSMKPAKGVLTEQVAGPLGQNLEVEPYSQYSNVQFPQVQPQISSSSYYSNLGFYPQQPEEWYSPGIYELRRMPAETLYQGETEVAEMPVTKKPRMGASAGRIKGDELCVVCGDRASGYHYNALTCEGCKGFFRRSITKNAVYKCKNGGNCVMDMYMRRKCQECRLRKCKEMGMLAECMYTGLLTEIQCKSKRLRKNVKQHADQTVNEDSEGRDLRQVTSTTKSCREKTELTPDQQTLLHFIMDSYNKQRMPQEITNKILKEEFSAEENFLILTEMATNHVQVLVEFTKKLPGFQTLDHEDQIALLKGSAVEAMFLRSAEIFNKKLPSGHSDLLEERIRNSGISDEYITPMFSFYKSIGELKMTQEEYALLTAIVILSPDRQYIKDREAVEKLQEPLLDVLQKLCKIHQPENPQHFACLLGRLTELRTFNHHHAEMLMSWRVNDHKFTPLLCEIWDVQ

Compound	EC50 [1] [nM]	EC50 [2] [µM]
O=c1[nH]c(-c2ccc(N3CCCC(OCc4c(-c5c(Cl)cccc5Cl)noc4C4CC4)CC3)cc2)no1 (stereo not shown) [Example 18, 3-(4-(4-((5-cyclopropyl-3-(2,6-dichlorophenyl)isoxazol-4-yl)methoxy)azepan-1-yl)phenyl)-1,2,4-oxadiazol-5(4H)-one]	18.4	0.0029
O=c1[nH]c(-c2ccc(N3CCC(OCc4c(-c5c(Cl)cccc5Cl)noc4C4CC4)CC3)cc2Cl)no1 [Example 14, 3-(2-chloro-4-(4-((5-cyclopropyl-3-(2,6-dichlorophenyl)isoxazol-4-yl)methoxy)piperidin-1-yl)phenyl)-1,2,4-oxadiazol-5(4H)-one]	64	0.0085
C[C@@H]1C[C@H](OCc2c(-c3c(F)cccc3F)noc2C2CC2)CCN1c1ccc(-c2noc(=O)[nH]2)cn1 [Example 73, 3-(6-((2R,4R)-4-((5-cyclopropyl-3-(2,6-difluorophenyl)isoxazol-4-yl)methoxy)-2-methylpiperidin-1-yl)pyridin-3-yl)-1,2,4-oxadiazol-5(4H)-one]	350	0.0476
O=c1[nH]c(-c2n[nH]c(N3CCC(OCc4c(-c5c(Cl)cccc5Cl)noc4C4CC4)CC3)n2)no1 [Example 45, 3-(5-(4-((5-cyclopropyl-3-(2,6-dichlorophenyl)isoxazol-4-yl)methoxy)piperidin-1-yl)-1H-1,2,4-triazol-3-yl)-1,2,4-oxadiazol-5(4H)-one]	10000	0.61
O=c1[nH]c(-c2ccc(N3CCC(OCc4c(-c5ccccc5OC(F)(F)F)noc4C4CC4)C(F)(F)C3)cc2)no1 (stereo not shown) [Example 54, 3-(4-(4-((5-cyclopropyl-3-(2-(trifluoromethoxy)phenyl)isoxazol-4-yl)methoxy)-3,3-difluoropiperidin-1-yl)phenyl)-1,2,4-oxadiazol-5(4H)-one]	715	0.0376
O=c1[nH]c(-c2csc(N3CCC(OCc4c(-c5c(Cl)cccc5Cl)noc4C4CC4)CC3)c2)no1 [Example 38, 3-(5-(4-((5-cyclopropyl-3-(2,6-dichlorophenyl)isoxazol-4-yl)methoxy)piperidin-1-yl)thiophen-3-yl)-1,2,4-oxadiazol-5(4H)-one]	263	0.0286
O=c1[nH]c(-c2cc(N3CCC(OCc4c(-c5c(Cl)cccc5Cl)noc4C4CC4)CC3)cs2)no1 [Example 30, 3-(4-(4-((5-cyclopropyl-3-(2,6-dichlorophenyl)isoxazol-4-yl)methoxy)piperidin-1-yl)thiophen-2-yl)-1,2,4-oxadiazol-5(4H)-one]	3620	0.296
C[C@@H]1C[C@H](OCc2c(-c3ccccc3Cl)noc2C2CC2)CCN1c1ccc(-c2noc(=O)[nH]2)cn1 [Example 72, 3-(6-((2R,4R)-4-((3-(2-chlorophenyl)-5-cyclopropylisoxazol-4-yl)methoxy)-2-methylpiperidin-1-yl)pyridin-3-yl)-1,2,4-oxadiazol-5(4H)-one]	54.9	0.0045
COc1cccc(F)c1-c1noc(C2CC2)c1COC1CCN(c2ccc(-c3noc(=O)[nH]3)cc2)CC1 [Example 28, 3-(4-(4-((5-cyclopropyl-3-(2-fluoro-6-methoxyphenyl)isoxazol-4-yl)methoxy)piperidin-1-yl)phenyl)-1,2,4-oxadiazol-5(4H)-one]	1610	0.149
O=c1[nH]nc(-c2ccc(N3CCC(OCc4c(-c5c(Cl)cccc5Cl)noc4C4CC4)CC3)cc2F)c(=O)[nH]1 [Example 41, 6-(4-(4-((5-cyclopropyl-3-(2,6-dichlorophenyl)isoxazol-4-yl)methoxy)piperidin-1-yl)-2-fluorophenyl)-1,2,4-triazine-3,5(2H,4H)-dione]	244	0.0584
O=c1[nH]c(-c2ccc(N3CCCC(OCc4c(-c5c(F)cccc5F)noc4C4CC4)CC3)cc2)no1 (stereo not shown) [Example 49, 3-(4-(4-((5-cyclopropyl-3-(2,6-difluorophenyl)isoxazol-4-yl)methoxy)azepan-1-yl)phenyl)-1,2,4-oxadiazol-5(4H)-one]	149	0.0117
C[C@H]1CN(c2ccc(-c3noc(=O)[nH]3)cc2)CC[C@@H]1OCc1c(-c2c(Cl)cccc2Cl)noc1C1CC1 [Example 33, 3-(4-((3S,4S)-4-((5-cyclopropyl-3-(2,6-dichlorophenyl)isoxazol-4-yl)methoxy)-3-methylpiperidin-1-yl)phenyl)-1,2,4-oxadiazol-5(4H)-one]	702	0.142
O=c1[nH]nc(-c2ccc(N3CCC(OCc4c(-c5c(Cl)cccc5Cl)noc4C4CC4)CC3)cc2F)o1 [Example 48, 5-(4-(4-((5-cyclopropyl-3-(2,6-dichlorophenyl)isoxazol-4-yl)methoxy)piperidin-1-yl)-2-fluorophenyl)-1,3,4-oxadiazol-2(3H)-one]	336	0.0416
O=c1[nH]nc(-c2ccc(N3CCC(OCc4c(-c5c(Cl)cccc5Cl)noc4C4CC4)CC3)nc2)o1 [Example 37, 5-(6-(4-((5-cyclopropyl-3-(2,6-dichlorophenyl)isoxazol-4-yl)methoxy)piperidin-1-yl)pyridin-3-yl)-1,3,4-oxadiazol-2(3H)-one]	274	0.0494

— patent US20240116912A1, “COMPOUNDS AND METHODS FOR MODULATING FXR” (Terns Pharmaceuticals, Inc., priority 2020, published 2024)
